Measurements published in ChEMBL document CHEMBL4825673, “Total and Semisyntheses of Polymyxin Analogues with 2-Thr or 10-Thr Modifications to Decipher the Structure-Activity Relationship and Improve the Antibacterial Activity” (J Med Chem, 2021).
Values after ≈ are worked out from the molar mass of the structure shown. Starred links: 1 amine or outer side, 2 acyl side, 3 side chain; linkers in the order of their positions; H or OH if unused. Positions of bridges follow the written chain, without caps; N, C: chain ends. Non-standard residues stand in square brackets, D forms with d. Residues, ends and D or L forms follow the SMILES beside them. *: point of attachment. Benzoyl(4-OPh) = O=C(c1ccc(Oc2ccccc2)cc1)*; Heptanoyl(6-Me) = CC(C)CCCCC(=O)*; NH(2-ClPh) = Clc1ccccc1N*; Dab = NCC[C@H](N)C(=O)O; CO = O=C([*:1])[*:2]

Each compound was assayed on Pseudomonas aeruginosa (assay: Antibacterial activity against Pseudomonas aeruginosa PAO1 assessed as inhibition of bacterial growth incubated for 24 hrs by broth microdilution method). Settings: read-out: MIC100.
Type: functional

Compound | MIC [µg/mL]
CC(C)CCCCC(=O)N[C@@H](CCN)C(=O)N[C@H](C(=O)N[C@@H](CCN)C(=O)N[C@H]1CCNC(=O)[C@H]([C@@H](C)O)NC(=O)[C@H](CCN)NC(=O)[C@H](CCN)NC(=O)[C@H](CC(C)C)NC(=O)[C@@H](Cc2ccccc2)NC(=O)[C@H](CCN)NC1=O)[C@@H](C)OC(=O)[C@@H](N)CC(N)=O | 1 (≈ 0.767 µM)
CC[C@H](C)CCCCC(=O)N[C@@H](CCN)C(=O)N[C@H](C(=O)N[C@@H](CCN)C(=O)N[C@H]1CCNC(=O)[C@H]([C@@H](C)O)NC(=O)[C@H](CCN)NC(=O)[C@H](CCN)NC(=O)[C@H](CC(C)C)NC(=O)[C@@H](Cc2ccccc2)NC(=O)[C@H](CCN)NC1=O)[C@@H](C)OC(=O)[C@@H](N)CCSC | 2 (≈ 1.5 µM)
CC(C)CCCCC(=O)N[C@@H](CCN)C(=O)N[C@H](C(=O)N[C@@H](CCN)C(=O)N[C@H]1CCNC(=O)[C@H]([C@@H](C)OC(=O)[C@H](C)N)NC(=O)[C@H](CCN)NC(=O)[C@H](CCN)NC(=O)[C@H](CC(C)C)NC(=O)[C@@H](Cc2ccccc2)NC(=O)[C@H](CCN)NC1=O)[C@@H](C)OC(=O)[C@H](C)N | 2 (≈ 1.5 µM)
CC[C@H](C)CCCCC(=O)N[C@@H](CCN)C(=O)N[C@H](C(=O)N[C@@H](CCN)C(=O)N[C@H]1CCNC(=O)[C@H]([C@@H](C)O)NC(=O)[C@H](CCN)NC(=O)[C@H](CCN)NC(=O)[C@H](CC(C)C)NC(=O)[C@@H](Cc2ccccc2)NC(=O)[C@H](CCN)NC1=O)[C@@H](C)OC(=O)[C@@H](N)CO | 1 (≈ 0.775 µM)
CC[C@H](C)CCCCC(=O)N[C@@H](CCN)C(=O)N[C@H](C(=O)N[C@@H](CCN)C(=O)N[C@H]1CCNC(=O)[C@H]([C@@H](C)O)NC(=O)[C@H](CCN)NC(=O)[C@H](CCN)NC(=O)[C@H](CC(C)C)NC(=O)[C@@H](Cc2ccccc2)NC(=O)[C@H](CCN)NC1=O)[C@@H](C)OC(=O)[C@H](C)N | 4 (≈ 3.14 µM)
CC(N[C@@H](CCN)C(=O)N[C@H](C(=O)N[C@@H](CCN)C(=O)N[C@H]1CCNC(=O)[C@H]([C@@H](C)O)NC(=O)[C@H](CCN)NC(=O)[C@H](CCN)NC(=O)[C@H](CC(C)C)NC(=O)[C@@H](Cc2ccccc2)NC(=O)[C@H](CCN)NC1=O)[C@@H](C)O)=C1C(=O)CC(C)(C)CC1=O | 32 (≈ 26.1 µM)
CCCCCCCC(=O)N[C@@H](CCN)C(=O)N[C@@H](CS)C(=O)N[C@@H](CCN)C(=O)N[C@H]1CCNC(=O)[C@H]([C@@H](C)O)NC(=O)[C@H](CCN)NC(=O)[C@H](CCN)NC(=O)[C@H](CC(C)C)NC(=O)[C@@H](Cc2ccccc2)NC(=O)[C@H](CCN)NC1=O | 8 (≈ 6.71 µM)
CC[C@H](C)CCCCC(=O)N[C@@H](CCN)C(=O)N[C@H](C(=O)N[C@@H](CCN)C(=O)N[C@H]1CCNC(=O)[C@H]([C@@H](C)O)NC(=O)[C@H](CCN)NC(=O)[C@H](CCN)NC(=O)[C@H](CC(C)C)NC(=O)[C@@H](Cc2ccccc2)NC(=O)[C@H](CCN)NC1=O)[C@@H](C)OC(=O)[C@@H]1CCCN1 | 2 (≈ 1.54 µM)
CC[C@H](C)CCCCC(=O)N[C@@H](CCN)C(=O)N[C@H](C(=O)N[C@@H](CCN)C(=O)N[C@H]1CCNC(=O)[C@H]([C@@H](C)O)NC(=O)[C@H](CCN)NC(=O)[C@H](CCN)NC(=O)[C@H](CC(C)C)NC(=O)[C@@H](Cc2ccccc2)NC(=O)[C@H](CCN)NC1=O)[C@@H](C)OC(=O)[C@@H](N)CC(N)=O | 2 (≈ 1.52 µM)
CC(C)CCCCC(=O)N[C@@H](CCN)C(=O)N[C@H](C(=O)N[C@@H](CCN)C(=O)N[C@H]1CCNC(=O)[C@H]([C@@H](C)O)NC(=O)[C@H](CCN)NC(=O)[C@H](CCN)NC(=O)[C@H](CC(C)C)NC(=O)[C@@H](Cc2ccccc2)NC(=O)[C@H](CCN)NC1=O)[C@H](C)OC(=O)[C@@H](N)CCC(=O)O | 2 (≈ 1.52 µM)
CC[C@H](C)CCCCC(=O)N[C@@H](CCN)C(=O)N[C@H](C(=O)N[C@@H](CCN)C(=O)N[C@H]1CCNC(=O)[C@H]([C@@H](C)O)NC(=O)[C@H](CCN)NC(=O)[C@H](CCN)NC(=O)[C@H](CC(C)C)NC(=O)[C@@H](Cc2ccccc2)NC(=O)[C@H](CCN)NC1=O)[C@@H](C)OC(=O)[C@@H](N)CCCCN | 2 (≈ 1.5 µM)
CCCCCCCC(=O)N[C@@H](CCN)C(=O)N[C@H](C(=O)N[C@@H](CCN)C(=O)N[C@H]1CCNC(=O)[C@H](CCSC)NC(=O)[C@H](CCN)NC(=O)[C@H](CCN)NC(=O)[C@H](CC(C)C)NC(=O)[C@@H](Cc2ccccc2)NC(=O)[C@H](CCN)NC1=O)[C@@H](C)O | 4 (≈ 3.28 µM)
CC(C)CCCCC(=O)N[C@@H](CCN)C(=O)N[C@@H](CC(=O)O)C(=O)N[C@@H](CCN)C(=O)N[C@H]1CCNC(=O)[C@H]([C@@H](C)O)NC(=O)[C@H](CCN)NC(=O)[C@H](CCN)NC(=O)[C@H](CC(C)C)NC(=O)[C@@H](Cc2ccccc2)NC(=O)[C@H](CCN)NC1=O | 64 (≈ 53.2 µM)
CC[C@H](C)CCCCC(=O)N[C@@H](CCN)C(=O)N[C@H](C(=O)N[C@@H](CCN)C(=O)N[C@H]1CCNC(=O)[C@H]([C@@H](C)O)NC(=O)[C@H](CCN)NC(=O)[C@H](CCN)NC(=O)[C@H](CC(C)C)NC(=O)[C@@H](Cc2ccccc2)NC(=O)[C@H](CCN)NC1=O)[C@@H](C)OC(=O)[C@@H](N)CCC(=O)O | 1 (≈ 0.75 µM)
CCCCCCCC(=O)N[C@@H](CCN)C(=O)N[C@@H](CO)C(=O)N[C@@H](CCN)C(=O)N[C@H]1CCNC(=O)[C@H]([C@@H](C)O)NC(=O)[C@H](CCN)NC(=O)[C@H](CCN)NC(=O)[C@H](CC(C)C)NC(=O)[C@@H](Cc2ccccc2)NC(=O)[C@H](CCN)NC1=O | 2 (≈ 1.7 µM)
CC[C@H](C)CCCCC(=O)N[C@@H](CCN)C(=O)N[C@H](C(=O)N[C@@H](CCN)C(=O)N[C@H]1CCNC(=O)[C@H]([C@@H](C)O)NC(=O)[C@H](CCN)NC(=O)[C@H](CCN)NC(=O)[C@H](CC(C)C)NC(=O)[C@@H](Cc2ccccc2)NC(=O)[C@H](CCN)NC1=O)[C@@H](C)OC(=O)[C@@H](N)CC(C)C | 4 (≈ 3.04 µM)
CC(C)CCCCC(=O)N[C@@H](CCN)C(=O)N[C@H](C(=O)N[C@@H](CCN)C(=O)N[C@H]1CCNC(=O)[C@H]([C@@H](C)O)NC(=O)[C@H](CCN)NC(=O)[C@H](CCN)NC(=O)[C@H](CC(C)C)NC(=O)[C@@H](Cc2ccccc2)NC(=O)[C@H](CCN)NC1=O)[C@@H](C)O [POLYMYXIN B2] ({Heptanoyl(6-Me)}-[Dab]T[Dab][Dab][Dab][dF]L[Dab][Dab]T; lactam 4-C) | 1 (≈ 0.841 µM)
CC(C)C[C@@H]1NC(=O)[C@@H](Cc2ccccc2)NC(=O)[C@H](CCN)NC(=O)[C@@H](NC(=O)[C@H](CCN)NC(=O)[C@@H](NC(=O)[C@H](CCN)NC(=O)c2ccc(Oc3ccccc3)cc2)[C@@H](C)O)CCNC(=O)[C@H]([C@@H](C)O)NC(=O)[C@H](CCN)NC(=O)[C@H](CCN)NC1=O ({Benzoyl(4-OPh)}-[Dab]T[Dab][Dab][Dab][dF]L[Dab][Dab]T; lactam 4-C) | 4 (≈ 3.18 µM)
CC[C@H](C)CCCCC(=O)N[C@@H](CCN)C(=O)N[C@H](C(=O)N[C@@H](CCN)C(=O)N[C@H]1CCNC(=O)[C@H]([C@@H](C)OC(=O)CN)NC(=O)[C@H](CCN)NC(=O)[C@H](CCN)NC(=O)[C@H](CC(C)C)NC(=O)[C@@H](Cc2ccccc2)NC(=O)[C@H](CCN)NC1=O)[C@@H](C)OC(=O)CN | 2 (≈ 1.52 µM)

More lines, in order of falling MIC, values ahead:

MIC [µg/mL] | Compound
128 (≈ 105 µM) | CC(C)CCCCC(=O)N[C@@H](CCN)C(=O)N[C@@H](CCC(N)=O)C(=O)N[C@@H](CCN)C(=O)N[C@H]1CCNC(=O)[C@H]([C@@H](C)O)NC(=O)[C@H](CCN)NC(=O)[C@H](CCN)NC(=O)[C@H](CC(C)C)NC(=O)[C@@H](Cc2ccccc2)NC(=O)[C@H](CCN)NC1=O
4 (≈ 3.29 µM) | CC(C)C[C@@H]1NC(=O)[C@@H](Cc2ccccc2)NC(=O)[C@H](CCN)NC(=O)[C@@H](NC(=O)[C@H](CCN)NC(=O)[C@@H](NC(=O)[C@H](CCN)NC(=O)Nc2ccccc2Cl)[C@@H](C)O)CCNC(=O)[C@H]([C@@H](C)O)NC(=O)[C@H](CCN)NC(=O)[C@H](CCN)NC1=O ({NH(2-ClPh)-CO}-[Dab]T[Dab][Dab][Dab][dF]L[Dab][Dab]T; lactam 4-C)
2 (≈ 1.44 µM) | CC[C@H](C)CCCCC(=O)N[C@@H](CCN)C(=O)N[C@H](C(=O)N[C@@H](CCN)C(=O)N[C@H]1CCNC(=O)[C@H]([C@@H](C)O)NC(=O)[C@H](CCN)NC(=O)[C@H](CCN)NC(=O)[C@H](CC(C)C)NC(=O)[C@@H](Cc2ccccc2)NC(=O)[C@H](CCN)NC1=O)[C@@H](C)OC(=O)[C@@H](N)Cc1c[nH]c2ccccc12
2 (≈ 1.49 µM) | CC[C@H](C)CCCCC(=O)N[C@@H](CCN)C(=O)N[C@H](C(=O)N[C@@H](CCN)C(=O)N[C@H]1CCNC(=O)[C@H]([C@@H](C)OC(=O)[C@H](C)N)NC(=O)[C@H](CCN)NC(=O)[C@H](CCN)NC(=O)[C@H](CC(C)C)NC(=O)[C@@H](Cc2ccccc2)NC(=O)[C@H](CCN)NC1=O)[C@@H](C)OC(=O)[C@H](C)N
2 (≈ 1.47 µM) | CC[C@H](C)CCCCC(=O)N[C@@H](CCN)C(=O)N[C@H](C(=O)N[C@@H](CCN)C(=O)N[C@H]1CCNC(=O)[C@H]([C@@H](C)O)NC(=O)[C@H](CCN)NC(=O)[C@H](CCN)NC(=O)[C@H](CC(C)C)NC(=O)[C@@H](Cc2ccccc2)NC(=O)[C@H](CCN)NC1=O)[C@@H](C)OC(=O)[C@@H](N)CCCNC(=N)N
2 (≈ 1.52 µM) | CC[C@H](C)CCCCC(=O)N[C@@H](CCN)C(=O)N[C@H](C(=O)N[C@@H](CCN)C(=O)N[C@H]1CCNC(=O)[C@H]([C@@H](C)O)NC(=O)[C@H](CCN)NC(=O)[C@H](CCN)NC(=O)[C@H](CC(C)C)NC(=O)[C@@H](Cc2ccccc2)NC(=O)[C@H](CCN)NC1=O)[C@@H](C)OC(=O)[C@@H](N)[C@@H](C)CC
2 (≈ 1.55 µM) | CC(C)CCCCC(=O)N[C@@H](CCN)C(=O)N[C@H](C(=O)N[C@@H](CCN)C(=O)N[C@H]1CCNC(=O)[C@H]([C@@H](C)O)NC(=O)[C@H](CCN)NC(=O)[C@H](CCN)NC(=O)[C@H](CC(C)C)NC(=O)[C@@H](Cc2ccccc2)NC(=O)[C@H](CCN)NC1=O)[C@@H](C)OC(=O)[C@@H](N)[C@@H](C)O
2 (≈ 1.43 µM) | CC[C@H](C)CCCCC(=O)N[C@@H](CCN)C(=O)N[C@H](C(=O)N[C@@H](CCN)C(=O)N[C@H]1CCNC(=O)[C@H]([C@@H](C)OC(=O)[C@@H]2CCCN2)NC(=O)[C@H](CCN)NC(=O)[C@H](CCN)NC(=O)[C@H](CC(C)C)NC(=O)[C@@H](Cc2ccccc2)NC(=O)[C@H](CCN)NC1=O)[C@@H](C)OC(=O)[C@@H]1CCCN1
2 (≈ 1.53 µM) | CC[C@H](C)CCCCC(=O)N[C@@H](CCN)C(=O)N[C@H](C(=O)N[C@@H](CCN)C(=O)N[C@H]1CCNC(=O)[C@H]([C@@H](C)O)NC(=O)[C@H](CCN)NC(=O)[C@H](CCN)NC(=O)[C@H](CC(C)C)NC(=O)[C@@H](Cc2ccccc2)NC(=O)[C@H](CCN)NC1=O)[C@@H](C)OC(=O)[C@@H](N)[C@@H](C)O
